Experiments:
Type in all cases: cell-based
[1] = system: mouse Kras; p16p19null rhabdomyosarcoma cell line; assay: In vitro growth assay (MTT) in mouse Kras; p16p19null rhabdomyosarcoma cell line; settings: 48 hours
Excerpt: (§1) FIG. 8: In vitro screening of candidate targets. Sarcoma cells were exposed to increasing concentrations of Torin (10, 50, 250 nMol), Rapamycin (10, 50, 100 nMol), RL0061425 (10, 50, 100, 500, 1000 nMol), SB525334 (1, 10, 50, 100, 500 nMol), SD208 (10, 50, 100, 500, 1000 nMol), and Ethanol and DMSO (as a control).
(§2) To begin to evaluate the effects of candidate target genes in sarcoma cells, we have established in vitro assays in which the proliferation of sarcoma cell lines exposed to selected chemical compounds is measured by MTT (3-(4,5-Dimethylthiazol-2-yl)-2,5-diphenyltretrazolium bromide) assay at defined time points. All experiments are carried out in low-passage cell lines established from modeled Kras rhabdomyosarcomas of satellite cell origin. For comparison, we also studied the effects of these compounds in the human embryonal rhabdomyosarcoma cell line RD. In these studies, we focused first on a small set of readily available chemical compounds (obtained from D. Guertin and L. Rubin at the University of Massachusetts and the Harvard Stem Cell Institute, respectively), whose targets include the TGFβ and mammalian target of rapamycin (mTOR) signaling pathways. As discussed above, the TGFβ pathway was implicated in sarcoma pathogenesis by our prior bioinformatics analyses. mTOR was tested as well because Ras pathway activation has been reported to promote mTOR signaling (Carriere, A., Romeo, Y., Acosta-Jaquez, H. A., Moreau, J., Bonneil, E., Thibault, P. Fingar, D. C., Roux, P. P., ERK1/2 Phosphorylate Raptor to Promote Ras-dependent Activation of mTOR Complex 1 (mTORC1). J Biol Chem 286 (1), 567 (2011)), and many genes on our list appear to interact with this signaling pathway (data not shown). Finally, gene ontology analyses of the 146 sarcoma-associated genes discussed above identified 61 genes that function in cell growth and proliferation (i.e., key cellular activities often regulated by mTOR).
(§3) Cell lines from the modeled sarcomas were exposed to graded concentrations of mTOR inhibitors (Rapamycin, Torin) or TGF inhibitors (RL0061425, SB525334, SD208). […]

[2] = system: human rhabdomyosarcoma cell line RD; assay: In vitro growth assay (MTT) in human rhabdomyosarcoma cell line RD; settings: 96 hours
Excerpt: as §1
To begin to evaluate the effects of candidate target genes in sarcoma cells, we have established in vitro assays in which the proliferation of sarcoma cell lines exposed to selected chemical compounds is measured by MTT (3-(4,5-Dimethylthiazol-2-yl)-2,5-diphenyltretrazolium bromide) assay at defined time points. All experiments are carried out in low-passage cell lines established from modeled Kras rhabdomyosarcomas of satellite cell origin. For comparison, we also studied the effects of these compounds in the human embryonal rhabdomyosarcoma cell line RD. In these studies, we focused first on a small set of readily available chemical compounds (obtained from D. Guertin and L. Rubin at the University of Massachusetts and the Harvard Stem Cell Institute, respectively), whose targets include the TGFβ and mammalian target of rapamycin (mTOR) signaling pathways. […]

[3] = system: mouse Kras; p16p19null sarcoma line; assay: In vitro growth assay (MTT) in mouse Kras; p16p19null sarcoma line; settings: 96 hours
Excerpt: as §1, §2, §3

[4] = tested at 10, 50, 100, 500, 1000 nMol

With Cc1cccc(-c2[nH]c(C(C)(C)C)nc2-c2ccc3nccnc3c2)n1 [SB525334] the “cell growth (fold-increase in MTT-uptake)” value ([1]; 1, 10, 50, 100, 500 nMol) was “no major effect”, the “cell growth (fold-increase in MTT-uptake)” value ([2]; 1, 10, 50, 100, 500 nMol) was “no major effect” and the “cell growth (fold-increase in MTT-uptake)” value ([3]; 1, 10, 50, 100, 500 nMol) was “no major effect”.
With Fc1ccc(Cl)cc1-c1nc(Nc2ccncc2)c2nccnc2n1 [SD208] the “concentration at which growth was inhibited (MTT-uptake)” value [1, 4] was ≥ 500 nmol and the “concentration at which growth was inhibited (MTT-uptake)” value [3, 4] was ≥ 500 nmol.
With Torin the “cell growth (fold-increase in MTT-uptake)” value ([1]; 250 nMol) was “reduced the growth”, the “cell growth (fold-increase in MTT-uptake)” value ([2]; 250 nMol) was “reduced the growth” and the “cell growth (fold-increase in MTT-uptake)” value ([3]; 250 nMol) was “reduced the growth”.
